# From paper PMC5909473, “Isoform-selective activity-based profiling of ERK signaling” (Chemical Science, 2018)
# Key:
# [1] = target: T1, ERK2 (Homo sapiens, UniProt P28482); test: competition of ATP acyl phosphate probe labelling by […] free ATP, SILAC LC-MS/MS; assay type: cell-based
# T1 construct: gene MAPK1; native endogenous ERK2 in lung cancer cell proteomes
# [2] = target: T2, ERK1 (Homo sapiens, UniProt P27361); test: as above; assay type: cell-based; design: gene MAPK3; native endogenous ERK1 in lung cancer cell proteomes
# T2 sequence (P27361 2-379): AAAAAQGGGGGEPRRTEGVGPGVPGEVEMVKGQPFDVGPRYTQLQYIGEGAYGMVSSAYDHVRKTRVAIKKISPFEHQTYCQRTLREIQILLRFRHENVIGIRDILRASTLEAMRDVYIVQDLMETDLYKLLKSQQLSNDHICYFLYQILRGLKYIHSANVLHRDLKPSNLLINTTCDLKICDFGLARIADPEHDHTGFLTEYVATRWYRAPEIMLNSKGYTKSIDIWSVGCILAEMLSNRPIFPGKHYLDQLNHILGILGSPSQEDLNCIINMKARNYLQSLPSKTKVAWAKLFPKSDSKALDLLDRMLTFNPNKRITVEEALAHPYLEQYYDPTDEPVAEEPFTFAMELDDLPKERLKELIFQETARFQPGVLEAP
# [3] = target: T2, ERK1; test: competitive ATP acyl phosphate activity-based profiling, SILAC LC-MS/MS in A549 lysate; assay type: biochemical; design: gene MAPK3; native endogenous ERK1 in A549 soluble proteome
# T1 sequence (P28482 2-360): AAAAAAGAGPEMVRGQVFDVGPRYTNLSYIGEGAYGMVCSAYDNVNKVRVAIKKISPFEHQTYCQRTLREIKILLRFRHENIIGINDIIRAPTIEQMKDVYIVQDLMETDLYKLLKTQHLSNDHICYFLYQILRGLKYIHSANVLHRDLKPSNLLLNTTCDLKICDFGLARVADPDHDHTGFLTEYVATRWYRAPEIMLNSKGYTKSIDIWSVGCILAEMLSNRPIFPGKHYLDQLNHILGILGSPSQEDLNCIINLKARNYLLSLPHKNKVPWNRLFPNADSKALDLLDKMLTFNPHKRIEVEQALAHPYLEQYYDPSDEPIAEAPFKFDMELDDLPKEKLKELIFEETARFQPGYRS
Structure (SMILES),"competition of ATP acyl phosphate probe labelling by 1 mM free ATP, SILAC LC-MS/ [1]","competition of ATP acyl phosphate probe labelling by 1 mM free ATP, SILAC LC-MS/ [2]",IC50 [3] [nM]
Nc1ncnc2c1ncn2[C@@H]1O[C@H](COP(=O)(O)OP(=O)(O)OP(=O)(O)O)[C@@H](O)[C@H]1O [ATP],both ERK1 and ERK2 probe-modified peptides were highly competed with ATP treatment,both ERK1 and ERK2 probe-modified peptides were highly competed with ATP treatment,–
CC(C)Nc1cc(-c2c[nH]c(C(=O)N[C@H](CO)c3cccc(Cl)c3)c2)c(Cl)cn1 [BVD-523],–,–,15
